According to patent publication US20170334899A1, “AMINO-SUBSTITUTED ISOTHIAZOLES” (Bayer Pharma Aktiengesellschaft, priority 2014, published 2017):
Values belong to the compound of their own block, whether it stands above or below them.

Assays:
[1] = tested on: human cervical tumor cell line HeLa (ATCC CCL-2); assay: SAC-Formation - Nocodazole-Induced Assay; format: cell-based; details: Homo sapiens, HeLa, 24 h, HeLa cells, nocodazole 0.1 μg/ml together with test compound, decrease of mitotic cells (phospho-histone H3 Ser10)
Method in brief: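 HeLa cells, plated overnight, were treated 24 h at 37 °C with nocodazole (0.1 μg/ml final) plus test compound (0.005–20 μM, 0.5% DMSO) added at the same time. After fixation, anti-phospho-histone H3 Ser10 and Hoechst staining gave the mitotic cell fraction by imaging. Values came from four-parameter Hill fits.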

CDK2/CycE = biological target: T1, CDK2/CycE (Homo sapiens, UniProt P24941); assay: CDK2/CycE kinase assay (TR-FRET); format: biochemical; details: avg, read-out: CDK2 avg (IC50 [mol/l])
T1 construct: GST; purchased ProQinase GmbH (Freiburg, Germany); host or cells: insect cells (Sf9)
Method in brief: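 GST-tagged human CDK2 and CycE from Sf9 cells, preincubated 15 min with compound, then 25 min at 22° C. with 10 μM ATP and 0.75 μM biotinylated Rb-derived peptide (final). Phospho-substrate read by TR-FRET (anti-pRB pSer807/pSer811, Eu anti-mouse IgG, streptavidin-XL665), 665/620 nm ratio, normalised to no-inhibitor and no-enzyme controls.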

Structure (SMILES): Cc1nsc(Nc2cnccn2)c1C(=O)Nc1ccc(OC2CCCN(C(=O)OC(C)(C)C)C2)nc1 (centres unmarked) [Example 41, tert-Butyl 3-{[5-({[3-methyl-5-(pyrazin-2-ylamino)-1,2-thiazol-4-yl]carbonyl}amino)-pyridin-2-yl]oxy}piperidine-1-carboxylate]
- IC50 [1]: 240 nM
- IC50 (CDK2/CycE): ≥ 20000 nM

Structure (SMILES): Cc1nsc(Nc2cc(C#N)ccn2)c1C(=O)Nc1ccc(OCCCN)nc1 [Example 44, N-[6-(3-Aminopropoxy)pyridin-3-yl]-5-[(4-cyanopyridin-2-yl)amino]-3-methyl-1,2-thiazole-4-carboxamide]
- IC50 [1]: 20000 nM
- IC50 (CDK2/CycE): ≥ 20000 nM

Structure (SMILES): Cc1nsc(Nc2cnc3ccccc3n2)c1C(=O)Nc1cccc(C(=O)NC(C)(C)C)c1 [Example 53, N-[3-(tert-Butylcarbamoyl)-phenyl]-3-methyl-5-(quinoxalin-2-ylamino)-1,2-thiazole-4-carboxamide]
- IC50 [1]: 950 nM
- IC50 (CDK2/CycE): ≥ 20000 nM

Structure (SMILES): Cc1nsc(Nc2nc3c(C(F)(F)F)cccc3s2)c1C(=O)Nc1ccc(OCCO)c(F)c1 [Example 4, N-[3-Fluoro-4-(2-hydroxyethoxy)phenyl]-3-methyl-5-{[4-(trifluoromethyl)-1,3-benzothiazol-2-yl]amino}-1,2-thiazole-4-carboxamide]
- IC50 [1]: 980 nM
- IC50 (CDK2/CycE): ≥ 20000 nM

Structure (SMILES): Cc1nsc(Nc2cnc3ccccc3n2)c1C(=O)Nc1cccc(C(=O)O)c1 [Example 51, 3-({[3-Methyl-5-(quinoxalin-2-ylamino)-1,2-thiazol-4-yl]carbonyl}amino)benzoic acid]
- IC50 [1]: 20000 nM
- IC50 (CDK2/CycE): ≥ 20000 nM

Structure (SMILES): COCCOc1ccc(NC(=O)c2c(C)nsc2Nc2nc3c(C(F)(F)F)cccc3s2)cc1F [Example 1, N-[3-Fluoro-4-(2-methoxyethoxy)phenyl]-3-methyl-5-{[4-(trifluoromethyl)-1,3-benzothiazol-2-yl]amino}-1,2-thiazole-4-carboxamide]
- IC50 [1]: 72 nM
- IC50 (CDK2/CycE): ≥ 20000 nM

Structure (SMILES): Cc1nsc(Nc2cc(C#N)ccn2)c1C(=O)Nc1ccc(OCCCNC(=O)OC(C)(C)C)nc1 [Example 43, tert-Butyl [3-({5-[({5-[(4-cyanopyridin-2-yl)amino]-3-methyl-1,2-thiazol-4-yl}-carbonyl)amino]pyridin-2-yl}oxy)propyl]carbamate]
- IC50 [1]: 130 nM
- IC50 (CDK2/CycE): ≥ 20000 nM

Structure (SMILES): COC(=O)c1cccc(NC(=O)c2c(C)nsc2Nc2cnc3ccccc3n2)c1 [Example 50, Methyl 3-({[3-methyl-5-(quinoxalin-2-ylamino)-1,2-thiazol-4-yl]carbonyl}amino)-benzoate]
- IC50 [1]: 4500 nM
- IC50 (CDK2/CycE): ≥ 20000 nM

Structure (SMILES): Cc1nsc(Nc2ccc(C#N)cn2)c1C(=O)Nc1ccc(OC2CCCN(C(=O)OC(C)(C)C)C2)nc1 (centres unmarked) [Example 36, tert-Butyl 3-({5-[({5-[(5-cyanopyridin-2-yl)amino]-3-methyl-1,2-thiazol-4-yl}-carbonyl)amino]pyridin-2-yl}oxy)piperidine-1-carboxylate]
- IC50 [1]: 210 nM
- IC50 (CDK2/CycE): ≥ 20000 nM

Structure (SMILES): Cc1nsc(Nc2cnccn2)c1C(=O)Nc1ccc(OCCCN)nc1 [Example 48, N-[6-(3-Aminopropoxy)pyridin-3-yl]-3-methyl-5-(pyrazin-2-ylamino)-1,2-thiazole-4-carboxamide]
- IC50 [1]: 5800 nM
- IC50 (CDK2/CycE): ≥ 20000 nM

Structure (SMILES): Cc1nsc(Nc2nc3c(C(F)(F)F)cccc3s2)c1C(=O)Nc1ccc(OCCO)nc1 [Example 2, N-[6-(2-Hydroxyethoxy)pyridin-3-yl]-3-methyl-5-{[4-(trifluoromethyl)-1,3-benzo-thiazol-2-yl]amino}-1,2-thiazole-4-carboxamide]
- IC50 [1]: 560 nM
- IC50 (CDK2/CycE): ≥ 20000 nM

Structure (SMILES): Cc1nsc(Nc2cnc3ccccc3n2)c1C(=O)Nc1ccc(OCCCNC(=O)OC(C)(C)C)nc1 [Example 42, tert-Butyl (3-{[5-({[3-methyl-5-(quinoxalin-2-ylamino)-1,2-thiazol-4-yl]carbonyl}-amino)pyridin-2-yl]oxy}propyl)carbamate]
- IC50 [1]: 820 nM
- IC50 (CDK2/CycE): ≥ 20000 nM

Structure (SMILES): COCCOc1ccc(NC(=O)c2c(C)nsc2Nc2nc3c(C(F)(F)F)cccc3s2)cn1 [Example 3, N-[6-(2-Methoxyethoxy)pyridin-3-yl]-3-methyl-5-{[4-(trifluoromethyl)-1,3-benzo-thiazol-2-yl]amino}-1,2-thiazole-4-carboxamide]
- IC50 [1]: 230 nM

Further lines, results first:

- IC50 [1]: 1200 nM
- IC50 (CDK2/CycE): > 20000 nM
Structure (SMILES): Cc1nsc(Nc2cnc(C(F)(F)F)cn2)c1C(=O)Nc1ccc(OCC2CCN(CCC(F)(F)F)CC2(F)F)nc1 (centres unmarked) [Example 402, N-(6-{[3,3-difluoro-1-(3,3,3-trifluoropropyl)piperidin-4-yl]methoxy}pyridin-3-yl)-3-methyl-5-{[5-(trifluoromethyl)pyrazin-2-yl]amino}-1,2-thiazole-4-carboxamide]

- IC50 [1]: 74 nM
Structure (SMILES): CCN1CC[C@H](Oc2ccc(NC(=O)c3c(C)nsc3Nc3cnc(C(F)(F)F)cn3)cn2)[C@H](F)C1 [Example 424, N-(6-{[(3R,4S)-1-Ethyl-3-fluoropiperidin-4-yl]oxy}pyridin-3-yl)-3-methyl-5-{[5-(trifluoromethyl)pyrazin-2-yl]amino}-1,2-thiazole-4-carboxamide]

- IC50 [1]: 9.4 nM
- IC50 (CDK2/CycE): > 20000 nM
Structure (SMILES): Cc1nsc(Nc2cnc(C(F)(F)F)cn2)c1C(=O)Nc1ccc(F)c(O[C@H]2CCN(CC(F)F)C2)c1 [Example 417, N-(3-{[(3S)-1-(2,2-Difluoroethyl)pyrrolidin-3-yl]oxy}-4-fluorophenyl)-3-methyl-5-{[5-(trifluoromethyl)pyrazin-2-yl]amino}-1,2-thiazole-4-carboxamide]

- IC50 [1]: 990 nM
- IC50 (CDK2/CycE): ≥ 20000 nM
Structure (SMILES): Cc1nsc(Nc2cnc3ccccc3n2)c1C(=O)Nc1cccc(C(=O)NCC(=O)OC(C)(C)C)c1 [Example 54, tert-Butyl N-[3-({[3-methyl-5-(quinoxalin-2-ylamino)-1,2-thiazol-4-yl]carbonyl}amino)-benzoyl]glycinate]

- IC50 [1]: 210 nM
- IC50 (CDK2/CycE): > 20000 nM
Structure (SMILES): Cc1nsc(Nc2cnc(C(F)(F)F)cn2)c1C(=O)Nc1ccc(F)c(OC[C@H]2CCCN(CCC(F)(F)F)C2)c1 [Example 418, N-(4-Fluoro-3-{[(3S)-1-(3,3,3-trifluoropropyl)piperidin-3-yl]methoxy}phenyl)-3-methyl-5-{[5-(trifluoromethyl)pyrazin-2-yl]amino}-1,2-thiazole-4-carboxamide]

- IC50 [1]: 63 nM
- IC50 (CDK2/CycE): > 20000 nM
Structure (SMILES): Cc1nsc(Nc2cnc(C(F)(F)F)cn2)c1C(=O)Nc1ccc(OC[C@H]2CCN(CC(F)(F)F)C2)nc1 [Example 404, 3-Methyl-N-(6-{[(3S)-1-(2,2,2-trifluoroethyl)pyrrolidin-3-yl]methoxy}pyridin-3-yl)-5-{[5-(trifluoromethyl)pyrazin-2-yl]amino}-1,2-thiazole-4-carboxamide]

- IC50 [1]: 120 nM
- IC50 (CDK2/CycE): > 20000 nM
Structure (SMILES): Cc1nsc(Nc2cnc(C(F)(F)F)cn2)c1C(=O)Nc1ccc(CCC2CCN(CCC(F)(F)F)CC2)nc1 [Example 420, 3-Methyl-5-{[5-(trifluoromethyl)pyrazin-2-yl]amino}-N-(6-{2-[1-(3,3,3-trifluoro-propyl)piperidin-4-yl]ethyl}pyridin-3-yl)-1,2-thiazole-4-carboxamide]

- IC50 [1]: 890 nM
- IC50 (CDK2/CycE): > 20000 nM
Structure (SMILES): Cc1nsc(Nc2cnc(C(F)(F)F)cn2)c1C(=O)Nc1ccc(OCCCNC(=O)C(F)(F)F)nc1 [Example 428, 3-Methyl-N-(6-{3-[(trifluoroacetyl)amino]propoxy}pyridin-3-yl)-5-{[5-(trifluoro-methyl)pyrazin-2-yl]amino}-1,2-thiazole-4-carboxamide]

- IC50 [1]: 18 nM
- IC50 (CDK2/CycE): > 20000 nM
Structure (SMILES): Cc1nsc(Nc2cnc(C(F)(F)F)cn2)c1C(=O)Nc1ccc(F)c(O[C@H]2CCN(CCC(F)(F)F)C2)c1 [Example 415, N-(4-Fluoro-3-{[(3S)-1-(3,3,3-trifluoropropyl)pyrrolidin-3-yl]oxy}phenyl)-3-methyl-5-{[5-(trifluoromethyl)pyrazin-2-yl]amino}-1,2-thiazole-4-carboxamide]

- IC50 [1]: 86 nM
Structure (SMILES): Cc1nsc(Nc2ccc(C#N)cn2)c1C(=O)Nc1ccc(OC[C@H]2CCN(CC(F)(F)F)C2)nc1 [Example 405, 5-[(5-Cyanopyridin-2-yl)amino]-3-methyl-N-(6-{[(35)-1-(2,2,2-trifluoroethyl)pyrrolidin-3-yl]methoxy}pyridin-3-yl)-1,2-thiazole-4-carboxamide]

- IC50 (CDK2/CycE): > 20000 nM
Structure (SMILES): Cc1nsc(Nc2cnc(C(F)(F)F)cn2)c1C(=O)Nc1ccc(OC[C@H]2CCCN(CCC(F)(F)F)C2)nc1 [Example 378, 3-methyl-5-{[5-(trifluoromethyl)pyrazin-2-yl]amino}-N-(6-{[(3S)-1-(3,3,3-trifluoropropyl)piperidin-3-yl]methoxy}pyridin-3-yl)-1,2-thiazole-4-carboxamide]

- IC50 [1]: 210 nM
Structure (SMILES): Cc1nsc(Nc2ccc(C#N)cn2)c1C(=O)Nc1ccc(Nc2ccc(F)c(F)c2)nc1 [Example 433, 5-[(5-Cyanopyridin-2-yl)amino]-N-{6-[(3,4-difluorophenyl)amino]pyridin-3-yl}-3-methyl-1,2-thiazole-4-carboxamide]

- IC50 (CDK2/CycE): > 20000 nM
Structure (SMILES): Cc1nsc(Nc2cnc(C(F)(F)F)cn2)c1C(=O)Nc1ccc(F)c(OCC2CCN(CC(F)(F)F)C2)c1 (centres unmarked) [Example 318, N-(4-fluoro-3-{[1-(2,2,2-trifluoroethyl)pyrrolidin-3-yl]methoxy}phenyl)-3-methyl-5-{[5-(trifluoromethyl)pyrazin-2-yl]amino}-1,2-thiazole-4-carboxamide]

- IC50 (CDK2/CycE): > 20000 nM
Structure (SMILES): CCCN1CCC(COc2ccc(NC(=O)c3c(C)nsc3Nc3cnc(C(F)(F)F)cn3)cn2)C(F)(F)C1 (centres unmarked) [Example 394, N-{6-[(3,3-difluoro-1-propylpiperidin-4-yl)methoxy]pyridin-3-yl}-3-methyl-5-{[5-(trifluoromethyl)pyrazin-2-yl]amino}-1,2-thiazole-4-carboxamide]
